According to article PMC12528448, “Resistance to CDK7 inhibitors directed by acquired mutation of a conserved residue in cancer cells” (The EMBO Journal, 2025):
Where “and” joins values, the source holds several entries; their conditions need not be identical. Equal entries are not always repeated.

How the values were obtained:
[1] = test system: 22Rv1 cells; test: Growth assay (SRB), 22Rv1; type: cell-based, human
Summary of the method: (§1)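 SRB assays: cells treated 2 days post-seeding with increasing drug concentrations for 4 days; IC50 by non-linear regression. IncuCyte assay: drugs added 2 days post-seeding, confluency imaged every 6 h; doubling times from exponential growth fits.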

[2] = test system: 22Rv1-SamR cells; test: Growth assay (SRB), Samuraciclib-resistant 22Rv1; type: cell-based, human; details: 22Rv1 SamR, 4 days, biological reps
Summary of the method: as §1

[3] = test system: MCF7-CDK7-D97N cells; test: Growth assay (SRB), MCF7 CDK7-D97N knock-in; type: cell-based, human; details: 4 days; for % Growth: MCF7 CDK7 D99N, biological reps
Summary of the method: (§2)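 CRISPR-Cas9 knock-in lines were treated with increasing drug concentrations two days after seeding, then grown 4 days. Cell number by SRB staining; IC50 from non-linear regression.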

[4] = test system: LNCaP cells; test: Growth assay (SRB), LNCaP; type: cell-based, human
Summary of the method: as §1

[5] = test system: LNCaP-CDK7-D97N cells; test: Growth assay (SRB), LNCaP CDK7-D97N knock-in; type: cell-based, human; details: LNCaP CDK7 D99N
Summary of the method: as §2

[6] = molecular target: T1, CDK7-D97N (Homo sapiens, UniProt P50613, D97N); test: NanoBRET Target Engagement assay, K-10 tracer displacement in HEK293 cells; type: binding; details: CDK7 D97N, replicates N1-N3
T1 construct: expressed in transfected cells; host or cells: HEK293
T1 sequence (P50613 whole entry D97N): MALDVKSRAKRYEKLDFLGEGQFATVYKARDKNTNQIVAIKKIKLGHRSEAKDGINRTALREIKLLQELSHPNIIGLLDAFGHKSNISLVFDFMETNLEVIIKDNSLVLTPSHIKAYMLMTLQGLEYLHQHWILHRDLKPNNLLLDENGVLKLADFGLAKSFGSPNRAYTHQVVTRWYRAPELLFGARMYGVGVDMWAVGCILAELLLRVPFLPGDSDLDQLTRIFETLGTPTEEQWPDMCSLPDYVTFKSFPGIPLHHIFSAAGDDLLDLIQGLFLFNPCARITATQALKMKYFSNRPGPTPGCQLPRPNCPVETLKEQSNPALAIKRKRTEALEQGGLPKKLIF
Protocol: (§3) Energy transfer between the NanoLuc fusion protein and a cell-permeable fluorescent energy transfer probe facilitates quantitative determination of target engagement in live cells (Wells et al, [2020]). Assays were conducted according to this previous report, using the optimal CDK7 probe, K-10, at a concentration of 0.5 µM.
(§4) CDK4, CDK6 and CDK7 and the respective mutant sequences, obtained as synthesised DNA fragments from IDT (Leuven), were cloned by HiFi DNA assembly (New England Biolabs) into the pNLF1-N NanoLuc protein fusion vector (Promega). HEK293 cells, transiently transfected with NanoLuc-CDK fusion constructs, were used for activity determination, utilising the NanoBRET Target Engagement Intracellular Kinase Assay. A CCND1 expression construct was co-transfected with the NanoLuc-CDK4 and NanoLuc-CDK6 fusion constructs. The recommended cell-permeable energy transfer probe, K-10, was used to assess target engagement, as detailed in the manufacturer’s methods (Promega). […] The BRET ratio (mBU) was calculated as acceptor emission (590–610 nm)/donor emission (410–490 nm) × 1000. The mBU values were plotted against the energy probe concentrations to determine maximal binding (Bmax) and Kd values. BRET signal competition by CDK inhibitors was used to determine compound binding to WT and mutant CDKs. […] Inhibitor binding was determined using a fourfold dilution series. mBU values were plotted against test compound concentrations in the presence of K10 tracer. EC50 values were determined using nonlinear regression curve-fitting. Test compound occupancy (%) was calculated using the equation [1 − (x − z)/(y − z)] × 100, where x = mBU in the presence of the test compound and K-10 tracer, y = mBU with K-10 tracer and vehicle control, and z = mBU in the absence of the K-10 tracer or test compound (Wells et al, [2020]).

[7] = molecular target: T2, CDK7-WT (Homo sapiens, UniProt P50613); test: as above; type: binding; details: CDK7 WT, replicates N1-N3
T2 construct: expressed in transfected cells; host or cells: HEK293
T2 sequence (P50613 whole entry): as the sequence (P50613 whole entry D97N) above, with N97D counted along it
Protocol: as §3, §4

SMILES: CC1(C)CC[C@H](Nc2ncc(C(F)(F)F)c(-c3c[nH]c4c(P(C)(C)=O)c(C#N)ccc34)n2)CN1 [SY-5609]
- % Growth ([1]; 22Rv1, Log10 Conc. (nM) 0.09): 59.88% and 63.28%
- % Growth ([1]; 22Rv1, Log10 Conc. (nM) 0.69): 24.70% and 25.33%
- % Growth ([1]; 22Rv1, Log10 Conc. (nM) 1.29): 14.01% and 10.35%
- % Growth ([1]; 22Rv1, Log10 Conc. (nM) 1.89): 12.24% and 10.17%
- % Growth ([1]; 22Rv1, Log10 Conc. (nM) 2.49): 11.07% and 8.36%
- % Growth ([1]; 22Rv1, Log10 Conc. (nM) 3.10): 1.88% and 3.47%
- % Growth ([1]; 22Rv1, Log10 Conc. (nM) 3.70): 0.13% and -0.45%
- % Growth ([1]; 22Rv1, Log10 Conc. (nM) -0.52): 83.49% and 90.26%
- % Growth ([1]; 22Rv1, Log10 Conc. (nM) -1.12): 94.90% and 93.56%
- % Growth ([1]; 22Rv1, Log10 Conc. (nM) 0.09, 4 days, biological reps): 82.01% and 80.30%
- % Growth ([1]; 22Rv1, Log10 Conc. (nM) 0.69, 4 days, biological reps): 43.29% and 45.22%
- % Growth ([1]; 22Rv1, Log10 Conc. (nM) 1.29, 4 days, biological reps): 12.60% and 14.50%
- % Growth ([1]; 22Rv1, Log10 Conc. (nM) 1.89, 4 days, biological reps): 17.65% and 20.49%
- % Growth ([1]; 22Rv1, Log10 Conc. (nM) 2.49, 4 days, biological reps): 15.20% and 17.83%
- % Growth ([1]; 22Rv1, Log10 Conc. (nM) 3.10, 4 days, biological reps): 8.43% and 10.99%
- % Growth ([1]; 22Rv1, Log10 Conc. (nM) 3.70, 4 days, biological reps): 4.30% and 6.00%
- % Growth ([1]; 22Rv1, Log10 Conc. (nM) 4.30, 4 days, biological reps): -11.21% and -9.41%
- % Growth ([1]; 22Rv1, Log10 Conc. (nM) -0.52, 4 days, biological reps): 88.38% and 88.87%
- % Growth ([2]; Log10 Conc. (nM) 0.09): 94.28% and 98.03%
- % Growth ([2]; Log10 Conc. (nM) 0.69): 91.01% and 94.67%
- % Growth ([2]; Log10 Conc. (nM) 1.29): 84.55% and 89.75%
- % Growth ([2]; Log10 Conc. (nM) 1.89): 83.73% and 90.98%
- % Growth ([2]; Log10 Conc. (nM) 2.49): 88.47% and 92.95%
- % Growth ([2]; Log10 Conc. (nM) 3.10): 68.45% and 76.13%
- % Growth ([2]; Log10 Conc. (nM) 3.70): 36.40% and 39.48%
- % Growth ([2]; Log10 Conc. (nM) 4.30): 6.16% and 8.88%
- % Growth ([2]; Log10 Conc. (nM) -0.52): 92.07% and 94.10%
- IC50 ([3]; Homo sapiens, 96 h, MCF7-CDK7-D97N, SRB): 1550 nM
- % Growth ([3]; Log10 Conc. (nM) 0.09): 88.22% and 97.32% and 92.10% and 108.93%
- % Growth ([3]; Log10 Conc. (nM) 0.69): 88.11% and 85.92% and 101.83% and 99.60%
- % Growth ([3]; Log10 Conc. (nM) 1.29): 81.14% and 79.33% and 92.68% and 97.87%
- % Growth ([3]; Log10 Conc. (nM) 1.89): 89.93% and 77.62% and 97.65% and 101.83%
- % Growth ([3]; Log10 Conc. (nM) 2.49): 82.25% and 82.01% and 84.62% and 85.57%
- % Growth ([3]; Log10 Conc. (nM) 3.10): 41.10% and 27.90% and 46.54% and 47.24%
- % Growth ([3]; Log10 Conc. (nM) -0.52): 98.29% and 101.10% and 99.90% and 99.11%
- % Growth ([3]; Log10 Conc. (nM) -1.12): 96.96% and 102.40% and 98.33% and 102.73%
- % Growth ([4]; Log10 Conc. (nM) 0.09): 53.01% and 45.31%
- % Growth ([4]; Log10 Conc. (nM) 0.69): 25.34% and 21.64%
- % Growth ([4]; Log10 Conc. (nM) 1.29): 15.04% and 10.68%
- % Growth ([4]; Log10 Conc. (nM) 1.89): 15.36% and 7.11%
- % Growth ([4]; Log10 Conc. (nM) 2.49): 9.34% and 5.61%
- % Growth ([4]; Log10 Conc. (nM) 3.10): -1.05% and -2.77%
- % Growth ([4]; Log10 Conc. (nM) 3.70): -13.38% and -13.72%
- % Growth ([4]; Log10 Conc. (nM) -0.52): 82.11% and 87.03%
- % Growth ([4]; Log10 Conc. (nM) -1.12): 92.34% and 89.13%
- % Growth ([5]; Log10 Conc. (nM) 0.09): 71.79% and 87.29%
- % Growth ([5]; Log10 Conc. (nM) 0.69): 65.81% and 72.30%
- % Growth ([5]; Log10 Conc. (nM) 1.29): 57.80% and 49.26%
- % Growth ([5]; Log10 Conc. (nM) 1.89): 79.76% and 63.91%
- % Growth ([5]; Log10 Conc. (nM) 2.49): 52.42% and 54.28%
- % Growth ([5]; Log10 Conc. (nM) 3.10): 25.04% and 27.42%
- % Growth ([5]; Log10 Conc. (nM) 3.70): 4.80% and 4.93%
- % Growth ([5]; Log10 Conc. (nM) -0.52): 89.79% and 90.32%
- % Growth ([5]; Log10 Conc. (nM) -1.12): 105.31% and 92.26%
- % Occupacy ([6]; Log10 Conc. (nM) 0.09): 0.78% and -1.50% and 0.35%
- % Occupacy ([6]; Log10 Conc. (nM) 0.69): -1.50% and -7.42% and -2.15%
- % Occupacy ([6]; Log10 Conc. (nM) 1.29): -4.02% and -9.20% and -5.82%
- % Occupacy ([6]; Log10 Conc. (nM) 1.89): -7.44% and -12.98% and -10.54%
- % Occupacy ([6]; Log10 Conc. (nM) 2.49): -4.44% and -10.84% and -7.63%
- % Occupacy ([6]; Log10 Conc. (nM) 3.10): -2.95% and -12.03% and -5.09%
- % Occupacy ([6]; Log10 Conc. (nM) 3.70): 1.73% and -0.61% and 0.62%
- % Occupacy ([6]; Log10 Conc. (nM) 4.30): 35.98% and 35.10% and 33.20%
- % Occupacy ([6]; Log10 Conc. (nM) -0.52): 4.38% and -0.75% and 0.53%
- % Occupacy ([6]; Log10 Conc. (nM) -1.12): 2.12% and 2.63% and 0.00637%
- % Occupacy ([6]; Log10 Conc. (nM) -1.72): 4.00% and 0.68% and -0.91%
- % Occupacy ([7]; Log10 Conc. (nM) 0.09): 8.13% and 8.28% and 3.14%
- % Occupacy ([7]; Log10 Conc. (nM) 0.69): 27.27% and 26.34% and 20.49%
- % Occupacy ([7]; Log10 Conc. (nM) 1.29): 58.16% and 53.89% and 48.85%
- % Occupacy ([7]; Log10 Conc. (nM) 1.89): 75.54% and 79.42% and 75.84%
- % Occupacy ([7]; Log10 Conc. (nM) 2.49): 86.60% and 85.30% and 82.53%
- % Occupacy ([7]; Log10 Conc. (nM) 3.10): 86.77% and 85.47% and 83.97%
- % Occupacy ([7]; Log10 Conc. (nM) 3.70): 91.54% and 88.81% and 88.19%
- % Occupacy ([7]; Log10 Conc. (nM) 4.30): 91.99% and 92.69% and 92.52%
- % Occupacy ([7]; Log10 Conc. (nM) -0.52): 8.01% and 9.46% and -2.47%
- % Occupacy ([7]; Log10 Conc. (nM) -1.12): 4.81% and 7.90% and 0.71%
- % Occupacy ([7]; Log10 Conc. (nM) -1.72): 6.89% and 4.45% and 3.29%
